The nature of series [1]: HPLC analysis of enamine stability in assay media, DMSO and pH buffers. The class given is physicochemical. Here is the method:
To determine whether the enamines were hydrolysed under the assay conditions, the stability of representative enamine derivative 72 was assessed in a range of assay media and pH buffers. Stock solutions of 72 in each of the various media were prepared and aliquots were extracted from each solution at various time points and subjected to HPLC analysis to measure the remaining intact enamine (Figure 9).
Solutions of 10 μM 72 were prepared in100% MEM media, 100% RPMI media, 10% (v/v) FCS in MEM, 10% BSA in water (v/v), 10 % FCS (v/v) in water, or 10 % (v/v) boiled FCS in water, DMSO and phosphate buffered water at pH 2, pH 7 and pH 10 by adding 10 μL of the 1 mM working stock of 72 in MeCN to 990 μL of each medium. A 50 μL aliquot was removed directly and immediately extracted as described below. At 5, 10, 15, 30, 60, 90, 120, 180, 240, 360 and 1440 minutes after addition of the drug further aliquots of 50 μL were taken and extracted as below. At each time point the 50 μL of the test solution was added to 50 μL of acetonitrile (MeCN). Samples were mixed for 10 seconds on a vortex mixer and centrifuged at 15700 rcf for 5 minutes in a microcentrifuge. The supernatant solution from each sample was placed into an HPLC vial for analysis. Samples were analysed by reverse phase HPLC with PDA detection.

A short description of series [2]: HPLC analysis of enamine stability in human plasma. Type of series: in vitro ADME. The following applies: over a period of 24 hours.
For series [3], the target named is T1, Nek2 (Homo sapiens, UniProt P51955).
T1 construct: purchased Invitrogen
T1 sequence (P51955 1-445): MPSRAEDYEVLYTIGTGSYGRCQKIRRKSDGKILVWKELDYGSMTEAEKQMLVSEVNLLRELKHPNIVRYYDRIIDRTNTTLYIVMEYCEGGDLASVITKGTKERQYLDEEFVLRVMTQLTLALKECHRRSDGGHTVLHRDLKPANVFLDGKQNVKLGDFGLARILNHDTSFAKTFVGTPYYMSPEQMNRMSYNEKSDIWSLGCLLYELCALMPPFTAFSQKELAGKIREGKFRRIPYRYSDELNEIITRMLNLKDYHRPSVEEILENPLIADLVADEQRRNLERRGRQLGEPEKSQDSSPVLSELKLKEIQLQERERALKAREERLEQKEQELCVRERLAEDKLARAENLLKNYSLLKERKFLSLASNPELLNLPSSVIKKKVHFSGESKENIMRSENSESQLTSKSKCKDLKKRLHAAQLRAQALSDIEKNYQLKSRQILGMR
Nature of the series: Nek2 Caliper kinase inhibition assay. To be noted: Caliper assay, 30 μM ATP. The class given is biochemical.

The target of series [4] is CDK2 (Homo sapiens, UniProt P24941). The series is described as follows: CDK2 kinase inhibition assay. The class given is biochemical. To be noted: 12.5 μM ATP.
Series [5] concerns the target Plk1 (Homo sapiens, UniProt P53350). The series is described as follows: Separate counter-screen against Plk1. Type of series: biochemical. The method, then: To assess the broader kinase selectivity of this series of 6-(dialkylamino)vinyl-purines, the diethylamino derivative 71 was chosen for wider screening against 24 kinases at 2 μM inhibitor concentration (Figure 5 – method as in reference 12).

The target of series [6] is T1, Nek2. The series is described as follows: Effect of pre-incubation of Nek2 with inhibitor on IC50 (time-dependence). Type of series: biochemical. From the text: www.impactjournals.com/oncotarget/ Oncotarget, Supplementary Materials 2016
Time after inhibitor addition
(1 picture or pasted object on this page, not shown here)

The target in series [7] is T1, Nek2. Nature of the series: Nek2 inhibition reversibility assay (rapid dilution). Type of series: biochemical. The following applies: 30 min pre-incubation at ten-fold IC50, rapid 100-fold dilution. The method, then:
The reversible nature of Nek2 inhibition by enamine 70 was measured using a kinase inhibition-reversibility assay. […] This solution in reaction buffer was pre-incubated with inhibitor 70 at a concentration ten-fold its IC50, calculated to afford approximately 91% inhibition of Nek2. […] Following rapid 1:100 dilution, a reaction progress curve was generated by monitoring for levels of the phosphorylated substrate as described in reference 16 using the Caliper EZ Reader II instrument at different times throughout the duration of the reaction.

For series [8], the system named is Nek2. The following applies: read-out: Nek2 inhibitory activity IC50; cited from earlier work.
Where [9] appears, read: 10 min after inhibitor addition.
The mark [10] stands for this setting: 15 min after inhibitor addition.
Setting [11] is: 30 min after inhibitor addition.
The mark [12] stands for this setting: 60 min after inhibitor addition.

The structures appear in SMILES notation. “Also recorded” adds a separate entry of the source.

Sequence of Plk1 (P53350 whole entry): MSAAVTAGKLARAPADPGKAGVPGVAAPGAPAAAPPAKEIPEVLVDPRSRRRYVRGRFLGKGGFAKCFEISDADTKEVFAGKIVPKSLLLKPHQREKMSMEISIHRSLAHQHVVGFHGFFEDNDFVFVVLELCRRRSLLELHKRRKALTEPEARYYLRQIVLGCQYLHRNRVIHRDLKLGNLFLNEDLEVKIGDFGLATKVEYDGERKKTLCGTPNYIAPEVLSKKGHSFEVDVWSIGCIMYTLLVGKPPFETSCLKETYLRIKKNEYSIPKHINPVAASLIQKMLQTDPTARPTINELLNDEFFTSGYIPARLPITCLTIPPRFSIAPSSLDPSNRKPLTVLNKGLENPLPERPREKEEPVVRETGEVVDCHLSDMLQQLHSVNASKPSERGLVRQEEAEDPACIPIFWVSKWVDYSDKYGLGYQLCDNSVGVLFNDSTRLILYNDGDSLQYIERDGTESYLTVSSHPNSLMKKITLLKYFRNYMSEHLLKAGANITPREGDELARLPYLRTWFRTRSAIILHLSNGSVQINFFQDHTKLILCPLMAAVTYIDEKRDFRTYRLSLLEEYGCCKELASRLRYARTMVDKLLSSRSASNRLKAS

With `C(=C\N1CCCCCC1)/c1nc(Nc2ccccc2)nc2[nH]cnc12` [Compound 72, (E)-6-(2-(Azepan-1-yl)vinyl)-N-phenyl-9H-purin-2-amine], in series [1] (DMSO solutions, for over 24 h), the “stability in DMSO” value was “stable”. In [1] (MEM and RPMI media, 10 μM, HPLC), the “stability in standard assay media” value was “degraded at a similar rate”. For the same molecule, the “stability at acidic pH” value in series [1] (pH 2.2) is “relatively stable”. Besides, the “stability at neutral pH” value in series [1] (pH 7) was “rapidly degraded”. Further, the “stability at basic pH” value in series [1] (pH 10.4) is “rapidly degraded”. In addition, the “stability in human plasma” value in [2] is recorded as “relatively stable”.

In turn, `CN(C)/C=C/c1nc(Nc2ccccc2)nc2[nH]cnc12` [Compound 70, (E)-6-(2-(Dimethylamino)vinyl)-N-phenyl-9H-purin-2-amine] showed a melting point of 129 to 131 °C. This molecule also yielded an IC50 in series [3] of 0.77 µM. The molecule also showed an IC50 in [4] of 3 µM. Besides, in series [5], the inhibition at 10 µM was 41%. In series [6] (2 min after inhibitor addition), this molecule registered a Hill slope of 0.73 and an IC50 of 1.37 µM. Besides, in [6] (5 min after inhibitor addition), the Hill slope is given as 0.59 and inhibition was half-maximal at 0.84 µM (IC50). In series [6] (setting [9]), the Hill slope came to 0.79 and the IC50 stood at 1.58 µM. In series [6] (setting [10]), this molecule returned a Hill slope of 0.71 and an IC50 of 1.33 µM. In addition, in series [6] (setting [11]), the Hill slope is recorded as 0.72 and inhibition was half-maximal at 1.06 µM (IC50). In series [6] (setting [12]), this molecule showed a Hill slope of 0.85 and a concentration for half-maximal inhibition (IC50) of 1.47 µM. Moreover, in series [6] (pre-incubation 2-60 min), the “time-dependence of Nek2 inhibition” value was “not to exhibit time-dependent Nek2 inhibition kinetics”. For the same molecule, the “reversibility of Nek2 inhibition” value in [7] is reported as “binds reversibly; also recorded: not an irreversible inhibitor”.

`C[C@@]12c3ccc4c(c3C(=O)c3occ(c31)C(=O)C[C@H]2O)CCC4=O` [Compound 4]: in series [8], the IC50 is 1.9 µM.

In general, IC50 refers to the concentration needed to halve the response being measured. As usually defined, the inhibition is the change of the read-out against control, counted positive when it falls. In general, Hill slope refers to a measure of the steepness of the concentration-response curve. As a reminder, the melting point is the temperature, or range, at which the solid turns liquid.

The record behind these values is paper PMC5386672, “Structure-guided design of purine-based probes for selective Nek2 inhibition” (Oncotarget, 2016).
